Like-named read-outs stand apart in the source and are kept apart here. Marks after values point to notes of the source that are not given here. Square brackets hold non-standard residues; d marks the D form. Peptide text beside a SMILES is read from it.
Experiments:
[1] = test system: influenza virus A/Puerto Rico/8/34 (H1N1); assay type: in vivo, Balb/c mice
[2] = test system: influenza virus A/California/04/2009; assay type: in vivo, mice
influenza virus A = assay type: in vivo, human
[3] = Clinical testing of inhalation: cough and shortness of breath; assay type: in vivo, human
From the text: Mu and delta receptors are found in the cough centre of the medulla, and systemic application of […] of these receptors inhibits the cough reflex. This usually also affects other organs and zones of the brain that contain opioid receptors. Additionally, since receptors of this group are found in peripheral neural pathways, Dalargin can also affect the conduction of signals along these neural pathways. Dalargin inhalation mostly produces local effects of short-lived metabolites of the peptide on peripheral opioid receptors, which manifests itself in reduced response of receptor cells to stimulation and reduced intensity of the signal transmitted to the cough centre. […] A certain local analgesic effect also improves the overall condition of the patient. […] This, in turn, alleviates the irritation of the respiratory tract, reduces the loss of the inhaled product due to coughing and improves the patients' quality of life.
Shortness of breath is one of the most common symptoms of VRIs. The patient is often unable to perform the most basic actions without experiencing shortness of breath, panting, and a sensation of lacking air. Descriptions of various methods of the treatment of shortness of breath report positive effects of systemic administration of certain opioid receptor agonists. […] Systemically administered opioids are also recommended for treating shortness of breath in such patients, but side effects may limit their use. Despite the positive effect, uses of such therapies are severely limited due to typical side effects and restrictions on the sales of opioid drugs. Inhalation of Dalargin is additionally associated with improved quality of respiration. […] Unlike classical opioids, these metabolites are short-lived and only act locally, in the zone where the inhaled aerosol is deposited in the lungs, predominantly in the larynx, bronchi and trachea.

[4] = test system: influenza virus A/Puerto Rico/8/34 (H1N1); conditions: for Virus titer PR8 (influenza virus): virus control 5.5
human adenovirus 5 = conditions: for Virus titer Ad5 (adenovirus): virus control 4.5
in vitro = conditions: African green monkey
[5] = in vivo; cited from earlier work
[6] = application to skin or mucosae at any concentration; cited from earlier work
[7] = administered by injection or infusion; cited from earlier work
[8] = Group 4: inhalation of 1% solution 14 min twice a day, 0.36 mg/kg
[9] = Group 4: inhalation of 1% solution 14 min twice a day, 0.36 mg/kg, 30 animals
[10] = Group 5: inhalation of 3% solution 45 min twice a day, 1.74 mg/kg
[11] = Group 5: inhalation of 3% solution 45 min twice a day, 1.74 mg/kg, 30 animals
[12] = Group 6: inhalation of 5% solution 55 min twice a day, 3.54 mg/kg
[13] = Group 6: inhalation of 5% solution 55 min twice a day, 3.54 mg/kg, 30 animals
[14] = Group 8: inhalation of 3% solution 45 min twice a day, prophylactic only
[15] = Group 8: inhalation of 3% solution 45 min twice a day, prophylactic only (days 3, 2, 1 and 1 hour before challenge), 30 animals
[16] = Group 9: nasally + pharyngeal spray 0.5 mg/kg, prophylactic only
[17] = Group 9: nasally + pharyngeal spray 0.5 mg/kg, prophylactic only, 30 animals
[18] = Group 4: nasally once a day 0.2 mg/kg, concentration 0.08%
[19] = Group 4: nasally once a day 0.2 mg/kg, concentration 0.08%, 30 animals
[20] = Group 5: nasally and posterior pharyngeal wall (PS) once daily 0.5 mg/kg, concentration 0.1%
[21] = Group 5: nasally and posterior pharyngeal wall (PS) once daily 0.5 mg/kg, concentration 0.1%, 30 animals
[22] = Group 6: inhalation of 1% solution 40 min once a day, 0.5 mg/kg
[23] = Group 6: inhalation of 1% solution 40 min once a day, 0.5 mg/kg, 30 animals
[24] = Group 7: inhalation of 3% solution 45 min once a day, 1.74 mg/kg
[25] = Group 7: inhalation of 3% solution 45 min once a day, 1.74 mg/kg, 30 animals
[26] = Group 9: inhalation of 3% solution 45 min twice a day, prophylactic only
[27] = Group 9: inhalation of 3% solution 45 min twice a day, prophylactic only, 30 animals
[28] = Group 10: nasally + pharyngeal spray (PS) 0.5 mg/kg once a day, prophylactic only
[29] = Group 10: nasally + pharyngeal spray (PS) 0.5 mg/kg once a day, prophylactic only, 30 animals
[30] = Example 10, patient V, A/California/07/2009 (H1N1), 0.1% solution inhaled twice a day, 4 mg/day, with Oseltamivir

CC(C)C[C@H](NC(=O)[C@H](Cc1ccccc1)NC(=O)CNC(=O)[C@@H](C)NC(=O)[C@@H](N)Cc1ccc(O)cc1)C(=O)N[C@@H](CCCNC(=N)N)C(=O)O [Dalargin, tyrosyl-D-alanyl-glycyl-phenylalanyl-leucyl-arginine diacetate] (H-Y[dA]GFLR-OH)
Protective effect on lung tissue and lung function compared with comparators ([1]; Dalargin inhalation): superior to that of Tamiflu and Kagocel
Mortality, % [1, 8]: 10.00%
Protective index, % [1, 8]: 88.46%
Mortality by day 9 [1, 9]: 2
Mortality by day 11 [1, 9]: 1
Residue [1, 9]: 27*
Mortality, % [1, 10]: 6.67%
Protective index, % [1, 10]: 92.30%
Mortality by day 8 [1, 11]: 1
Mortality by day 10 [1, 11]: 1
Residue [1, 11]: 28*
Mortality, % [1, 12]: 6.67%
Protective index, % [1, 12]: 92.30%
Mortality by day 7 [1, 13]: 1
Mortality by day 10 [1, 13]: 1
Residue [1, 13]: 28*
Mortality, % [1, 14]: 40.00%
Protective index, % [1, 14]: 53.85%
Mortality by day 5 [1, 15]: 1
Mortality by day 6 [1, 15]: 3
Mortality by day 7 [1, 15]: 2
Mortality by day 8 [1, 15]: 3
Mortality by day 9 [1, 15]: 3
Residue ([1]; Group 8: inhalation of 3% solution 45 min twice a day, prophylactic only, 30 animals): 18
Mortality, % [1, 16]: 50.00%
Protective index, % [1, 16]: 42.31%
Mortality by day 6 [1, 17]: 4
Mortality by day 7 [1, 17]: 4
Mortality by day 8 [1, 17]: 4
Mortality by day 9 [1, 17]: 2
Mortality by day 10 [1, 17]: 1
Residue [1, 17]: 15
Histological features of lung tissue, day 3 after challenge ([1]; oedema, neutrophilic infiltration, collapsed alveolae relative to control): far less pronounced
Efficacy attributed exclusively to the prophylactic protective effect ([1]; preventive administration, without the therapeutic component): 50%
Histological features of lung tissue, day 12 ([1]; surviving animals): One half of the animals receiving Dalargin exhibited no signs of pathology
Mortality, % [2, 18]: 56.67%
Protective index, % [2, 18]: 41.38%
Mortality by day 5 [2, 19]: 2
Mortality by day 6 [2, 19]: 4
Mortality by day 7 [2, 19]: 9
Mortality by day 9 [2, 19]: 1
Mortality by day 11 [2, 19]: 1
Residue [2, 19]: 13
Mortality, % [2, 20]: 40.00%
Protective index, % [2, 20]: 58.62%
Mortality by day 6 [2, 21]: 1
Mortality by day 7 [2, 21]: 2
Mortality by day 8 [2, 21]: 3
Mortality by day 9 [2, 21]: 5
Mortality by day 10 [2, 21]: 1
Residue [2, 21]: 18
Mortality, % [2, 22]: 6.67%**
Protective index, % [2, 22]: 93.10%
Mortality by day 7 [2, 23]: 1
Mortality by day 8 [2, 23]: 1
Residue [2, 23]: 28
Mortality, % [2, 24]: 10.00%**
Protective index, % [2, 24]: 89.66%
Mortality by day 7 [2, 25]: 1
Mortality by day 8 [2, 25]: 1
Mortality by day 9 [2, 25]: 1
Residue [2, 25]: 27
Mortality, % [2, 26]: 30.00%
Protective index, % [2, 26]: 68.97%
Mortality by day 6 [2, 27]: 2
Mortality by day 7 [2, 27]: 3
Mortality by day 8 [2, 27]: 2
Mortality by day 9 [2, 27]: 2
Residue [2, 27]: 21
Mortality, % [2, 28]: 46.67%
Protective index, % [2, 28]: 51.72%
Mortality by day 5 [2, 29]: 2
Mortality by day 6 [2, 29]: 4
Mortality by day 7 [2, 29]: 2
Mortality by day 8 [2, 29]: 3
Mortality by day 9 [2, 29]: 2
Mortality by day 10 [2, 29]: 1
Residue [2, 29]: 16
Efficacy compared with other antiviral drugs (Ingavirin, Arbidol) ([2]; administered by inhalation, prevention of influenza pneumonia): superior to other antiviral drugs
Protective effect against infection, share of animals ([2]; preventive administration, depending on the route of administration): 50-70%
Complete resolution of symptoms, day after start of therapy (influenza virus A; Example 8, patient K, influenza pneumonia A/Aichi/2/68 (H3N2), 0.02% solution inhaled twice a day, 1 mg/day, with Oseltamivir 75 mg twice a day): 7 days
Duration of fever (influenza virus A; [30]): 3 days
Duration of intoxication symptoms (influenza virus A; [30]): 2 days
Duration of the disease as a whole (complete resolution of symptoms) (influenza virus A; [30]): 5 days
Duration of reduced coughing severity [3]: 2 to 4 h
Cough reported by patients ([3]; clinical testing): alleviation or elimination of cough
Shortness of breath ([3]; investigational clinical use): significantly reduced shortness of breath
Virus titer PR8 (influenza virus) ([4]; 0.4 μg/mL): 5.5 lg TCID50/0.1 mL
Virus titer PR8 (influenza virus) ([4]; 1.1 μg/mL): 5.0 lg TCID50/0.1 mL
Virus titer PR8 (influenza virus) ([4]; 3.3 μg/mL): 5.0 lg TCID50/0.1 mL
Virus titer PR8 (influenza virus) ([4]; 10 μg/mL): 4.5 lg TCID50/0.1 mL
Virus titer PR8 (influenza virus) ([4]; 30 μg/mL): 4.0 lg TCID50/0.1 mL
SI ([4]; CC50/IC50, PR8 (influenza virus)): >37.5
IC50 ([4]; PR8 (influenza virus), MDCK): 0.8 mg/L
Antiviral properties (in words) ([4]; influenza virus, MDCK): dose-dependent reduction of the infectious activity
IC50 (human adenovirus 5): 2.5 mg/L
Virus titer Ad5 (adenovirus) (human adenovirus 5; 0.4 μg/mL): 4.5 lg TCID50/0.1 mL
Virus titer Ad5 (adenovirus) (human adenovirus 5; 1.1 μg/mL): 4.5 lg TCID50/0.1 mL
Virus titer Ad5 (adenovirus) (human adenovirus 5; 3.3 μg/mL): 4.0 lg TCID50/0.1 mL
Virus titer Ad5 (adenovirus) (human adenovirus 5; 10 μg/mL): 4.0 lg TCID50/0.1 mL
Virus titer Ad5 (adenovirus) (human adenovirus 5; 30 μg/mL): 3.5 lg TCID50/0.1 mL
SI (human adenovirus 5; CC50/IC50, Ad5 (adenovirus)): 12
Antiviral properties (in words) (human adenovirus 5; adenovirus, Vero): dose-dependent reduction of the infectious activity
CC50 (in vitro): ≥ 30 mg/L
LD50 [5]: 2500 mg/kg
Local irritation [6]: does not produce local irritation
Mean elimination half-life [7]: 12 min

Source: patent US20210346459A1, “Application of Dalargin for the prevention of VRIs and prevention of the development of complications during VRIs” (priority 2020, published 2021)
